Test results taken from PMC4942611, “Promising Tools in Prostate Cancer Research: Selective Non-Steroidal Cytochrome P450 17A1 Inhibitors” (Scientific Reports, 2016).
Where two headings read alike, the source gives them in different places.

Legend:
CYP17A1 = target: T1, CYP17A1 (Homo sapiens, UniProt P05093); test: H295R cell assay, CYP17A1 hydroxylase and lyase activity; assay type: cell-based; conditions: for IC50: 48 hours, mean over 6 to 15 measurements ± standard error
T1 construct: endogenous in cells; host or cells: H295R
T1 sequence (P05093 1-508): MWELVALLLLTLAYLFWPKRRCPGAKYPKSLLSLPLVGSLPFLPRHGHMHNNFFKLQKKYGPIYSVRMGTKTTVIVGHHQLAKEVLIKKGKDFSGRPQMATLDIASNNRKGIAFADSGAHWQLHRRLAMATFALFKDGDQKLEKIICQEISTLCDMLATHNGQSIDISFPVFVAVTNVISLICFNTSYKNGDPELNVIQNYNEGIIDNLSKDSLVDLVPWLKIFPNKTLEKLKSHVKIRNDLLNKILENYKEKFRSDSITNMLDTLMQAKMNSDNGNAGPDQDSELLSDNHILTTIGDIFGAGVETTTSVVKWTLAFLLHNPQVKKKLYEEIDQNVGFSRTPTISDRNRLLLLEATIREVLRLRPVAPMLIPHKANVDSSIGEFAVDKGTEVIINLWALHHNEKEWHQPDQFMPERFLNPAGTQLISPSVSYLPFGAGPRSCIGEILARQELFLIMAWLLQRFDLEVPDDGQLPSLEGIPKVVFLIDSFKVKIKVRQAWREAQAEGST
Method: (§1) The H295R steroid hormone synthesis assay was performed according to the OECD validation guideline. Cells were cultured in DMEM/F12 media supplemented with 1% ITS-premix and 2.5% Nu-serum at 37 °C with a 5% CO2 atmosphere. The cells were only used for experiments between passage […]. During exposure experiments, cells were grown in 24 well plates with a density of 3 × 10^5 cells/mL. […] To avoid interference from low levels of steroid hormones present in the Nu-serum, the exposure experiment was conducted with serum-free media. Each compound was tested at a minimum of seven concentration levels using three or more replicates and the experiment was repeated on two different days (n = 6–15). On each test plate a solvent control (SC) (medium with 0.1% DMSO) was included in triplicate and the maximal concentration of DMSO in the cell medium was 0.1%[49]. After 48 hours of incubation in presence of the test compounds, 950 μL of the medium was carefully removed and internal standards (50 μl of 0.1 μg/μl solution containing deuterated steroid analogues) were added. Samples were stored at −20 °C for later analysis.
Steroid extraction and clean-up were performed by double protein precipitation. First, 900 μL of cold acetonitrile were added to the samples, which were then vortexed and centrifuged at ~9500 × g for 10 minutes. Second, 900 μL cold methanol was added to the supernatant and the mixture was vortexed and centrifuged at 1500 × g for 10 minutes. Finally, the supernatant was collected and concentrated to ~1 mL under a gentle stream of nitrogen at 60 °C.
For on-line solid phase extraction (SPE) of steroids, a total of 100 μL was injected on a binary 1290 Agilent Infinity Series system and a binary 1100 Agilent HPLC pump were used in combination (Agilent Technologies, Palo Alto, CA, USA). For online clean-up, a C18 enrichment column (μbondapak® C18, 3.9 × 20 mm, 10 μm, Waters) was used. The enrichment column was connected to the autosampler through the TTC switching valve (two positions, 6 ports). Between the autosampler and the TTC switching valve a 0.3 μm in-line filter (1290 infinity in-line filter, Agilent) was installed. Separation of steroid hormones was performed using a C18 analytical column (Kinetex, 2.6 μm C18 100 Å, 75 × 2.1 mm, Phenomenex, USA). An isocratic flow of 1 mL/min H2O:methanol:formic acid at 90:10:0.1 (v/v/v) was generated by the 1100 pump which was connected to the autosampler. The 1290 pump performed a gradient elution with a flow rate of 0.3 mL which was connected to the TTC switching valve. Mobile phase A and B were composed of H2O with 0.1% formic acid (v/v) and pure methanol, respectively. The elution gradient was maintained at 10% B for the first 2 min, changed to 10.0–30.0% from 2.0 to 2.2 min, 30.0–60.0% from 2.2 to 8.0 min, maintained at 60.0% from 8.0 to 10.0 min, increased to 60.0–85.0% from 10.0 to 12.30 min, 85.0–99.5% from 12.3 to 12.5 min and held at 99.5% from 12.5 to 14.8 min, before re-equilibrating the column until 16 minutes.
For detection, an AB SCIEX 4500 QTRAP mass spectrometer (Applied Biosystems, Foster City, CA, USA) equipped with an atmospheric pressure chemical ionization (APCI) Turbo V source was used. Multiple reaction monitoring (MRM) was performed in positive mode during the analysis with a targeted scan time of 0.8 sec. Nitrogen was applied as curtain, collision, and ion source gases.

[1] = Precipitation of compound in H295R exposure medium; assay type: physicochemical; conditions: H295R assay medium, 0.1% DMSO
Method: This cellular assay was also used to evaluate inhibitor selectivity.
as §1

H295R cells = test: Cell viability, resazurin assay; assay type: cell-based, human
Text: Cell viability was confirmed with the resazurin assay, as described by Nielsen et al.[50].

[2] = based on conversion of 17-OH-PRE into DHEA, read-out: IC50 lyase, H295R system
[3] = based on conversion of PRE into 17-OH-PRE, read-out: IC50 hydroxylase, H295R system

Structure (SMILES)	IC50 (CYP17A1; [2]) [µM]	IC50 (CYP17A1; [3]) [µM]	Concentration at which precipitation was observed [1]	Inhibitor concentrations at which CYP17A1 is inhibited (only CYP17A1 affected) (CYP17A1; H295R cells) [nM]	Concentration at which cells were not viable (H295R cells) [µM]
Cc1ccc(-c2csc(-c3cccnc3)n2)c(C)c1 [Compound 1]	0.094 ± 0.03	0.83 ± 0.08	around 10 μM	–	–
CCCn1nnc2cc(-c3cc(-c4ccncc4)c(C#N)c(N)n3)ccc21 [Compound 2]	0.0074 ± 0.0001	0.052 ± 0.004	60 µM	–	–
C[C@]12CC[C@H](O)CC1=CC[C@@H]1[C@@H]2CC[C@]2(C)C(c3cccnc3)=CC[C@@H]12 [abiraterone, reference compound]	–	0.0094 ± 0.0003	–	2.5 to 10	10
